The test system of one data set is lanternfly. Particulars: in vivo; cited from earlier work.
For a further data set, the system named is bees. The settings on record: perhaps contributing to the collapse of bee colonies; cited from earlier work.
The test system of data set [1] is spotted lanternflies (lycorma delicatula). As to the kind of experiment: formulations sprayed on lantern flies to test lethality. Type of data set: in vivo. The settings on record: applied by spraying the top of the insect; lethal = the insect dies within 10 minutes. On the procedure: The concentration of menthol in the insecticide should be sufficient such that it is lethal to the insect. As used herein, the term “lethal” means that, once applied by spraying the top of the insect, the insect dies within 10 minutes. Those of skill in the art can determine a lethal dose of menthol without undue experimentation. Although higher doses tend to result in a shorter kill time, given the expense of menthol, it is generally preferred to minimize its concentration to achieve a sufficient kill time, i.e., less than 10 minutes and preferably less than 2 minutes, and more preferably less than 1 minute.
The following nonlimiting examples illustrate the effectiveness of the insecticide of the present invention. […] In all cases, the formulations were applied to lantern flies to test the effectiveness of the particular formulation, and, in all cases, the formulations were lethal as defined in this application.
Again, in all cases, the formulations were applied to lantern flies to test the effectiveness of the particular formulation, and, in all cases, the formulation were lethal as defined in this application.

In the case of `CN/C(=N/CC1CCOC1)N[N+](=O)[O-]` (centres unmarked) [Dinotefuran], in the data set on lanternfly, the “shown to be effective in exterminating the lanternfly” value is “effective” and the “time to kill the lanternfly” value was “hours”. Further, in the data set with bees, the effect on bees result was “detrimental”.
Regarding `CC1(C)C(C=C(Cl)Cl)C1C(=O)OCc1cccc(Oc2ccccc2)c1` (centres unmarked) [Permethrin], in the data set with lanternfly, the “shown to be effective in exterminating the lanternfly” value was “effective”.
On to `CC1CCC(C(C)C)C(O)C1` (centres unmarked) [menthol], for which the lethal to lanternfly entry in data set [1] is given as “lethal”.

Values taken from patent US10743535B2, “Insecticide for flight-capable pests” (H&K SOLUTIONS LLC, priority 2017, dated 2020).
